The assay has as its system Pyrenophora teres. The assay can be described thus: In vivo test on Pyrenophora teres (preventive spray on barley plants). As to conditions: barley plants (Express variety), grading 12 days after contamination, in comparison with control plants. As to the method:
The active ingredient tested is prepared by potter homogenisation in a concentrated suspension type formulation at 100 g/l. This suspension is then diluted with water to obtain the desired active material concentration.
Barley plants (Express variety) in starter cups, sown on a 50/50 peat soil-pozzolana substrate and grown at 12° C., are treated at the 1-leaf stage (10 cm tall) by spraying with the aqueous suspension described above. Plants, used as controls, are treated with an aqueous solution not containing the active material. After 24 hours, the plants are contaminated by spraying them with an aqueous suspension of Pyrenophora teres spores (12,000 spores per ml). The spores are collected from a 12-day-old culture. The contaminated barley plants are incubated for 24 hours at about 20° C. and at 100% relative humidity, and then for 12 days at 80% relative humidity.
Grading is carried out 12 days after the contamination, in comparison with the control plants.

Consider `O=C(NCCc1c[nH]c2ccc(Br)cc12)c1ccccc1I` [N.[2-(5-bromo-1H-indol-3-yl)ethyl]-2-iodobenzamide], for which the protection result (dose of 500 ppm) was “no protection at all”.

In the case of `O=C(NCCc1c[nH]c2ccc(Br)cc12)c1ccccc1Cl` [N.[2-(5-bromo-1H-indol-3-yl)ethyl]-2-chlorobenzamide], the protection result (dose of 500 ppm) was “no protection at all”.

As to `O=C(NCCc1c[nH]c2ccc(Br)cc12)c1ccccc1C(F)(F)F` [N.[2-(5-bromo-1H-indol-3-yl)ethyl]-2-(trifluoromethyl)benzamide], the protection result (dose of 330 ppm) is “no protection at all”.

In the case of `O=C(NCCc1c[nH]c2ccc(Br)cc12)c1ccccc1C(F)F` [N.[2-(5-bromo-1H-indol-3-yl)ethyl]-2-(difluoromethyl)benzamide], the protection entry (dose of 500 ppm) is given as “no protection at all”.

The values are drawn from US20090054235A1, “Benzoheterocyclylethylbenzamide derivatives” (priority 2005, published 2009).
